Patent publication US8853424B2 (Japan Science and Technology Agency, priority 2008, dated 2014)

Columns and labels:
[1] = test system: Truncated N-terminal huntington 150 Q-EGFP-Neuron 2a cells; assay: Measurement of x-Fold (polyglutamine aggregation inhibitory activity); assay type: cell-based
Procedure: In the present invention, the polyglutamine aggregation inhibitory activity (x-Fold) can be measured, for example, by the method described in the Example.
The number of the aggregated cells, and the total number of cells were counted by Array Scan V T1 (manufactured by Cellomics, Pittuburg, USA), and the ratio of the aggregated cells to the total number of cells was determined (x-Fold). […]

transglutaminase (TGase) = assay: Measurement of TG (TGase inhibitory activity, monodansyl cadaverine / N,N-dimethylcasein fluorescence, FDSS 3000); assay type: biochemical
Procedure: For example, the method described in the Example can be performed.
The compound of the present invention (10 mM, 1 μL) was taken in a 96-well plate (Nunc, 96 Well Black Plate with Clear Bottom), an enzyme reaction solution (100 mM HEPES-NaOH, pH 7.5, 1 mM CaCl2, 20 μM monodansyl cadaverine, 0.05 mg/mL N,N-dimethylcasein, 5 μg/mL TGase) (0.1 ml) was added and the mixture was sufficiently mixed without making foams. The mixture was set on a fluorescence drug screening system FDSS 3000 (Hamamatsu Photonics K.K.), and changes in the fluorescence wavelength per unit time at 340 nm were measured, based on which the TGase inhibitory activity of the compound of the present invention was calculated. As a control, change in the fluorescence when 1 μL of DMSO (dimethyl sulfoxide) was added instead of the compound of the present invention was taken as 100, and TG50 was when the activity decreased to half due to the compound of the present invention.

[2] = ratio of aggregated cells to total number of cells, compound 20 μM, 20 hr, almost 1 without compound, smaller = stronger inhibition
[3] = TGase activity with compound (10 mM, 1 μL in 0.1 ml enzyme reaction solution), DMSO control taken as 100
[4] = polyglutamine aggregation, Truncated N-terminal huntington 150 Q-EGFP-Neuron 2a cells
[5] = TGase inhibitory activity measurement, unit not given
[6] = polyglutamine aggregation inhibitory activity, Table 1
[7] = TGase inhibitory activity value, Table 1

Row | Compound | x-Fold [1, 2] | TGase activity remaining (% of DMSO control = 100) (transglutaminase (TGase); [3]) | x-Fold [1, 6] | TGase activity remaining (% of DMSO control = 100) (transglutaminase (TGase); [7]) | also measured
1 | OB(c1ccccc1)c1ccccc1B(O)c1ccccc1 [Example 121, 1,2-bis(phenylhydroxyboryl)benzene] | 0.94 | 121 |  |  | x-Fold ([1]; polyglutamine aggregation inhibitory activity, Table 1, listed as 583): 0.94; TGase activity remaining (% of DMSO control = 100) (transglutaminase (TGase); TGase inhibitory activity value, Table 1, listed as 583): 121
2 | CNCCOB(c1ccccc1)c1ccc(COCc2ccc(B(OCCNC)c3ccccc3)cc2)cc1 [Example 400, bis(4,4′-(phenyl-N-methylaminoethoxyboryl)benzyl)ether] | 1.01 | 52 |  |  | x-Fold [1, 4]: 1.01; TGase activity remaining (% of DMSO control = 100) (transglutaminase (TGase); [5]): 52
3 | NCC(=O)OB(c1ccccc1)c1ccccc1 [Example 254, diphenyl(glycinate-O,N)borane] | 0.95 | 101 | 0.95 | 101 | 
4 | OB(c1ccc(COCc2ccc(B(O)c3ccc(F)c(F)c3)cc2)cc1)c1ccc(F)c(F)c1 [Example 352, bis(4-(3,4-difluorophenylhydroxyboryl)benzyl)ether] | 1.02 | 97 | 1.02 | 97 | 
5 | CCC(C)B(O)c1ccccc1 (stereo not drawn) [Example 107, secondary-butyl phenyl borinic acid] | 0.98 | 111 | 0.98 | 111 | 
6 | Fc1cc(B(OCc2ccccn2)c2cc(F)c(F)c(F)c2)cc(F)c1F [Example 90, 2-pyridylmethyl bis(3,4,5-trifluorophenyl)borinate] | 0.81 | 93 | 0.81 | 93 | 
7 | Cc1ccc(B(OCCN)c2ccc(-c3ccc(B(OCCN)c4ccc(C)cc4)cc3)cc2)cc1 [Example 364, 4,4′-(4-methylphenylaminoethoxyboryl)diphenyl] | 0.82 | 44 | 0.82 | 44 | 
8 | CNCCOB(c1ccc(COCc2ccc(B(OCCNC)c3ccc(F)c(F)c3)cc2)cc1)c1ccc(F)c(F)c1 [Example 417, bis(4,4′-(3,4-difluorophenyl-N-methylaminoethoxyboryl)benzyl)ether] | 1.01 | 91 |  |  | x-Fold [1, 4]: 1.01; TGase activity remaining (% of DMSO control = 100) (transglutaminase (TGase); [5]): 91
9 | CN(C)CCOB(c1ccc(F)c(Cl)c1)c1ccc(F)c(Cl)c1 [Example 78, 2-dimethylaminoethyl bis(3-chloro-4-fluorophenyl)borinate] | 1.02 | 104 | 1.02 | 104 | 
10 | NC(c1ccccc1)C(OB(c1ccccc1)c1ccccc1)c1ccccc1 (stereo not drawn) [Example 224, diphenyl 1-(2-aminobenzyl) 1-phenylmethylborinate] | 0.89 | 112 | 0.89 | 112 | 
11 | c1ccc(CNCCOB(c2ccccc2)c2cccc3ccccc23)cc1 [Example 204, phenyl naphthyl benzylaminoethylborinate] | 0.79 | 61 | 0.79 | 61 | 
12 | OB(c1ccccc1)c1ccc(COCCOc2ccc(B(O)c3ccccc3)cc2)cc1 [Example 379, (4-(phenylhydroxyboryl)phenoxyethyl)(4-(phenylhydroxyboryl)benzyl)ether] | 0.74 | 92 | 0.74 | 92 | 
13 | N#Cc1ccc(B(O)c2cccc(COCc3cccc(B(O)c4ccc(C#N)cc4)c3)c2)cc1 [Example 345, bis(3-(4-cyanophenylhydroxyboryl)benzyl)ether] | 0.92 | 95 | 0.92 | 95 | 
14 | Cc1cc(B(O)c2ccc(COCc3ccc(B(O)c4ccc(Cl)c(C)c4)cc3)cc2)ccc1Cl [Example 338, bis(4-(4-chloro-3-methyl-phenyl)hydroxyborylbenzyl)ether] | 0.83 | 110 |  |  | x-Fold ([1]; polyglutamine aggregation inhibitory activity, Table 1, listed as 693): 0.83; TGase activity remaining (% of DMSO control = 100) (transglutaminase (TGase); TGase inhibitory activity value, Table 1, listed as 693): 110
15 | O=C(OB(c1ccccc1)c1ccccc1)C1CNCCN1 (stereo not drawn) [Example 279, diphenyl(2-piperazinecarboxy)borane] | 0.98 | 103 | 0.98 | 103 | 
16 | OB(c1ccc(COCc2ccc(B(O)c3cccc4ccccc34)cc2)cc1)c1cccc2ccccc12 [Example 141, bis(4,4′-(1-naphthylhydroxyboryl)benzyl)ether] | 0.92 | 97 | 0.92 | 97 | 
17 | Cc1ccc(B(OC(=O)C(N)CCC(N)=O)c2ccc(C)c(Cl)c2)cc1Cl (stereo not drawn) [Example 182, di(3-chloro-4-methylphenyl)(glutaminate-O,N)borane] | 1.01 | 137 | 1.01 | 137 | 
18 | N#Cc1ccc(B(O)c2ccc(C#N)cc2)cc1 [Example 102, bis(4-cyanophenyl)borinic acid] | 1.10 | 72 |  |  | x-Fold ([1]; polyglutamine aggregation inhibitory activity, Table 1, listed as 5009): 1.10; TGase activity remaining (% of DMSO control = 100) (transglutaminase (TGase); TGase inhibitory activity value, Table 1, listed as 5009): 72
19 | CN(C)CCOB(c1ccccc1)c1cccc(COCc2cccc(B(OCCN(C)C)c3ccccc3)c2)c1 [Example 206, bis(3,3′-(phenyldimethylaminoethoxyboryl)benzyl)ether] | 1.14 | 34 |  |  | x-Fold ([1]; polyglutamine aggregation inhibitory activity, Table 1, listed as 3107): 1.14; TGase activity remaining (% of DMSO control = 100) (transglutaminase (TGase); TGase inhibitory activity value, Table 1, listed as 3107): 34
20 | CC(O)C(N)COB(c1ccc(Cl)c(F)c1)c1ccc(Cl)c(F)c1 (stereo not drawn) [Example 238, di(4-chloro-3-fluorophenyl) 2-amino-3-hydroxybutyl borinate] | 1.07 | 87 | 1.07 | 87 | 
21 | tetramethylrhodamine aminoethylaminoethyl diphenylborinate [Example 162] | 0.85 | −2 | 0.85 | −2 | 
22 | CC(C)(C)c1cc(B(OCCN)c2ccccc2)c2c(c1)C(C)(C)c1cc(C(C)(C)C)cc(B(OCCN)c3ccccc3)c1O2 [Example 378, 4,5-di(phenylaminoethoxyboryl)-2,7-di-tert-butyl-9,9-dimethylxanthrene] | 0.79 | 88 | 0.79 | 88 | 
23 | Cc1ccc(B(OC(=O)C(N)CCCNC(N)=O)c2ccc(C)c(Cl)c2)cc1Cl (stereo not drawn) [Example 287, di(3-chloro-4-methylphenyl)(citrullinate-O,N)borane] | 1.00 | 146 | 1.00 | 146 | 
24 | NCCOB(c1cc(F)cc(F)c1)c1cc(F)cc(F)c1 [Example 91, aminoethyl bis(3,5-difluorophenyl)borinate] | 0.99 | 107 | 0.99 | 107 | 
25 | CN(C)CCOB(c1ccccc1)c1ccc(Oc2ccc(B(OCCN(C)C)c3ccccc3)cc2)cc1 [Example 385, bis(4,4′-(phenyl-N,N-dimethylaminoethoxyboryl)phenyl)ether] | 0.78 | 116 | 1.07 |  | 
26 | OB(c1cc(Cl)ccc1F)c1cc(Cl)ccc1F [Example 98, bis(3-chloro-6-fluorophenyl)borinic acid] | 0.95 | 111 | 0.95 | 111 | 
27 | CCCCB(CCCC)OC(=O)C(C)N (stereo not drawn) [Example 159, dibutyl(alanine-O,N)borane] | 0.96 | 102 | 0.96 | 102 | 
28 | N#Cc1ccc(B(OCCN)c2ccc(C#N)cc2)cc1 [Example 103, aminoethyl bis(4-cyanophenyl)borinate] | 0.89 | 114 | 0.89 | 114 | 
